Tests used:
[1] = test system: bladder cancer cell lines; test: Cell proliferation by MTT assay; type: cell-based, human; details: for growth of BC cells: bladder cancer cell lines, apigenin with increasing dosage; for cell growth, proliferation: low concentrations, single or co-treatment
Description: (§1) Human BC cell lines T24, 5637, HT1197, HT1376, and RT4 were cultured in Eagle's Minimum Essential (for HT1197 and HT1376), McCoy's 5a Medium Modified (for T24 and RT4), and RPMI-1640 (for […]) medium (ATCC, Manassas, VA, USA) including 10% heat-inactivated FBS (Hyclone, Pittsburgh, PA, USA) and penicillin/streptomycin (Cellgro, Pittsburgh, PA, USA). 40 μM apigenin (Sigma-Aldrich, Burlington, MA, USA), 4-hydroxychalcone (Sigma-Aldrich), and diosmetin (Sigma-Aldrich) were treated for 24 hours to activate ID2 expression, and 20 μM RO-3306 (Sigma-Aldrich) and CGP74514A (Sigma-Aldrich) were treated for 24 hours to inhibit CDK1 activity.
(§2) The cell proliferation ability was determined by MTT assay (Sigma-Aldrich). Apoptosis was analyzed by annexin-V fluorescein isothiocyanate (FITC)/propidium iodide (PI) assay. Cells were subjected to trypsin, harvested, washed with PBS, resuspended in annexin-V binding buffer (10 mM HEPES, pH 7.4, 140 mM NaCl, 2.5 mM CaCl2)), and labeled with Annexin-V FITC and PI. FITC- and/or PI-labeled cell colonies were quantified by flow cytometry (Beckman Coulter, Brea, CA, USA).

[2] = test system: bladder cancer cell lines; test: Apoptosis by annexin-V FITC/PI flow cytometry; type: cell-based, human; details: for apoptosis of BC cells: bladder cancer cell lines, apigenin time-dependent treatment; for apoptosis of bladder cancer cells: low concentrations, single or co-treatment
Description: as §1, §2

[3] = test system: ID2; test: ID2 expression in bladder cancer cells (qPCR, Western blot); type: cell-based, human; details: HT1197 and HT1376 cells; ID2 activators 40 μM, CDK1 inhibitors 20 μM, 24 hours
Description: as §1
Real-time quantification PCR was used to perform quantitative analysis of gene expression. Total RNA was extracted using the QIAGEN RNeasy RNA isolation kit (QIAGEN, Valencia, CA, USA), and 50 ng of total RNA was reverse transcribed using Taqman Reverse Transcription Reagents (Applied Biosystems, Foster City, CA, USA). Threshold cycles (Ct) were used to determine the relative expression levels of target genes using the 2-DDCt method. The expression of GAPDH was used as an endogenous control gene.
(§3) Cell extracts (30 μg) were prepared in RIPA lysis buffer (Santa Cruz Biotechnology) supplemented with a protease and phosphatase inhibitor cocktail (Roche, Indianapolis, IN, USA) and isolated in a 12% SDS-PAGE gel. An expression level of the labeled protein was assessed by probing with the following antibodies: ID2 (NBP-88630; Novusbio, Centennial, CO, USA), TFCP2L1 (OAAB09732; Aviva Systems Biology, San Diego, CA, USA), CDK1 (sc-54; Santa Cruz), PARP (9542; Cell Signaling), Cleaved Caspase-3 (9661; Cell Signaling), b-ACTIN (A5441; Sigma-Aldrich), and Flag-epitope (F3165; Sigma-Aldrich).

[4] = test system: bladder cancer cell lines; test: Tumor sphere formation; type: cell-based, human
Description: To form tumor spheres, BC cells were resuspended in a single-cell suspension mixed with serum-free keratinocyte growth medium (Gibco, Waltham, MA, USA) and growth factor-reduced Matrigel (BD Biosciences, Mountain View, CA, USA) in a 1:1 ratio, and cultured on ultra-low attachment plates (Costar, Corning, NY, USA). The size of the tumor sphere was measured for 7 days after the first culture. For quantitative analysis, Image J software (National Institute of Mental Health, Bethesda, MD, USA) was used to measure the circumference of tumor sphere in eight representative regions randomly selected from each group.

[5] = test system: HT1376 cells; test: Orthotopic xenograft BC animal model, tumor size and histological examination; type: in vivo; details: NSG mice; for tumor growth suppression/inhibition: i.p. apigenin 50 mg/kg and/or RO-3306 4 mg/kg, 6 times at 4-day intervals
Description: (§4) All animal experiments conducted in this experiment were carried out with the approval of the Institutional Animal Care Committee (IACUC-2020-12-209) of the University of Ulsan College of Medicine. 8-week-old male NOD/[…]) mice were purchased from GEM Biosciences Inc. (Cheongju, South Korea). 100 μl of 1.0×10^6 HT1376 BC cells were injected into the anterior wall of the bladder and the outer layer of the dome using a […] and a 26-gauge needle in the mice adapted for 1 week at the Animal Laboratory of Asan Medical Center, Seoul. Three weeks after orthotopic transplantation of BC cells, mice were injected intraperitoneally with RO-3306 (4 mg/kg) and apigenin (50 mg/kg), either alone or in combination, for 6 times at 4-day intervals. Mice and injection sites were monitored every 2 days for 45 days after the initial administration of BC cells. Tumor size was measured at the endpoint, and the tumor site was recovered by incision to perform histological examination or immunofluorescence assay. Mice were randomly assigned to the treatment group (N=5 or 10) and randomized to the sequence of cell transplantation, treatment, evaluation, and daily checkup. Investigations related to tumor size measurement and histological assessment were conducted as blind tests for the treatment group. For histological analysis, the bladder of xenograft mice was fixed with 4% paraformaldehyde for 1 day. After 24 hours of cryoprotection in 30% sucrose, each bladder was cut into 20 μm sections using cryostat (Leica, Lussloch, Germany) and stained with hematoxylin and eosin (H&E). For immunofluorescence (IF) staining, the bladder was stained with antibodies specific to ID2 (NBP-88630; Novusbio), TFCP2L1 (OAAB09732; Aviva Systems Biology), CDK1 (ab131450; Abcam, Cambridge, MA, USA), CD44 (ab78960; Abcam), and Cytokeratin 14 (KRT14; Ab7800). […] The stained samples were photographed using an inverted fluorescence microscope (EVOS FL Color Imaging System, Life Technologies).

[6] = test system: bladder cancer cell lines; test: Western blot of caspase-3 and PARP cleavage; type: cell-based, human; details: for cleavage of caspase-3 and PARP: low concentrations, single or co-treatment
Description: as §1, §3

[7] = test system: TFCP2L1; test: TFCP2L1 protein expression in orthotopic xenograft bladder (immunofluorescence); type: in vivo, mice; details: HT1376 orthotopic xenograft; RO-3306 4 mg/kg alone or with apigenin 50 mg/kg i.p.
Description: as §4, with “checkup.” for “checkup. Investigations related to tumor size measurement and histological assessment were conducted as blind tests for the treatment group. For histological analysis, the bladder of xenograft mice was fixed with 4% paraformaldehyde for 1 day. After 24 hours of cryoprotection in 30% sucrose, each bladder was cut into 20 μm sections using cryostat (Leica, Lussloch, Germany) and stained with hematoxylin and eosin (H&E). For immunofluorescence (IF) staining, the bladder was stained with antibodies specific to ID2 (NBP-88630; Novusbio), TFCP2L1 (OAAB09732; Aviva Systems Biology), CDK1 (ab131450; Abcam, Cambridge, MA, USA), CD44 (ab78960; Abcam), and Cytokeratin 14 (KRT14; Ab7800).”

[8] = test system: ID2; test: ID2 protein expression in orthotopic xenograft bladder (immunofluorescence); type: in vivo, mice; details: HT1376 orthotopic xenograft; RO-3306 4 mg/kg alone or with apigenin 50 mg/kg i.p.
Description: as §4, with “checkup.” for “checkup. Investigations related to tumor size measurement and histological assessment were conducted as blind tests for the treatment group. For histological analysis, the bladder of xenograft mice was fixed with 4% paraformaldehyde for 1 day. After 24 hours of cryoprotection in 30% sucrose, each bladder was cut into 20 μm sections using cryostat (Leica, Lussloch, Germany) and stained with hematoxylin and eosin (H&E). For immunofluorescence (IF) staining, the bladder was stained with antibodies specific to ID2 (NBP-88630; Novusbio), TFCP2L1 (OAAB09732; Aviva Systems Biology), CDK1 (ab131450; Abcam, Cambridge, MA, USA), CD44 (ab78960; Abcam), and Cytokeratin 14 (KRT14; Ab7800).”

[9] = test system: CDK1; test: CDK1 protein expression in orthotopic xenograft bladder (immunofluorescence); type: in vivo, mice; details: HT1376 orthotopic xenograft; RO-3306 4 mg/kg alone or with apigenin 50 mg/kg i.p.
Description: as §4, with “checkup.” for “checkup. Investigations related to tumor size measurement and histological assessment were conducted as blind tests for the treatment group. For histological analysis, the bladder of xenograft mice was fixed with 4% paraformaldehyde for 1 day. After 24 hours of cryoprotection in 30% sucrose, each bladder was cut into 20 μm sections using cryostat (Leica, Lussloch, Germany) and stained with hematoxylin and eosin (H&E). For immunofluorescence (IF) staining, the bladder was stained with antibodies specific to ID2 (NBP-88630; Novusbio), TFCP2L1 (OAAB09732; Aviva Systems Biology), CDK1 (ab131450; Abcam, Cambridge, MA, USA), CD44 (ab78960; Abcam), and Cytokeratin 14 (KRT14; Ab7800).”

[10] = test system: bladder cancer cell lines; test: In vitro cell invasion (Transwell, Matrigel); type: cell-based, human
Description: The upper chamber of the Transwell permeable support (Corning Inc, Corning, NY, USA) with an 8.0 μm pore polycarbonate membrane filter was coated with Matrigel (BD Biosciences) diluted in a 1:5 ratio. BC cells were loaded into the upper chamber at 2×10^4 cell/well concentrations in 100 μL of serum-free DMEM, and culture medium containing 3% FBS was filled into the lower chamber. Cell invasiveness was evaluated by culturing cells at 37° C. for 24 hours in a 5% CO2 incubator and then counting the number of cells that migrated to the bottom of the membrane. Three fields of view (magnification, ×200) were randomly selected from each transwell chamber for quantitative analysis.

Row | Compound | growth of BC cells [1] | apoptosis of BC cells [2] | expression of ID2 at RNA and protein levels [3] | tumor sphere forming ability [4] | cell growth, proliferation [1] | tumor growth suppression/inhibition [5] [%] | cleavage of caspase-3 and PARP [6] | apoptosis of bladder cancer cells [2] | expression of TFCP2L1 protein [7] | expression level of ID2 protein [8] | expression of CDK1 protein [9] | histological examination: therapeutic effect, size and progression of bladder cancer ([5]; i.p. 6 times at 4-day intervals) | invasiveness of BC cells [10] | cleavage of caspase-3 and poly-(ADP-ribose) polymerase (PARP) ([6]; bladder cancer cell lines)
1 | O=C(/C=C/c1ccc(O)cc1)c1ccccc1 [4-hydroxychalcone] | reduced the growth of bladder cancer cells | activated apoptosis | increase in ID2 expression | tumor forming ability was reduced |  |  |  |  |  |  |  |  |  | 
2 | CCn1cnc2c(Nc3cccc(Cl)c3)nc(N[C@@H]3CCCC[C@@H]3N)nc21 [CGP74514A] |  |  | increase in ID2 expression |  |  |  |  |  |  |  |  |  |  | 
3 | O=C1NC(=NCc2cccs2)S/C1=C\c1ccc2ncccc2c1 [RO-3306] |  |  | increased |  | no significant effect | 66.8±2.48 | no significant effect | does not induce | high | low | high |  |  | 
4 | O=c1cc(-c2ccc(O)cc2)oc2cc(O)cc(O)c12 [apigenin] | decreased significantly | activated | increased | remarkably inhibit | no significant effect | 74±6.13 | no significant effect | does not induce |  |  |  | therapeutic effect of apigenin on bladder cancer regardless of tumor grade | remarkably inhibit | resulted in cleavage of caspase-3 and poly-(ADP-ribose) polymerase (PARP)
5 | COc1ccc(-c2cc(=O)c3c(O)cc(O)cc3o2)cc1O [diosmetin] | reduced bladder cancer cell growth | activated apoptosis |  | decreased tumor forming ability |  |  |  |  |  |  |  |  |  | 
